From US12233161B1, “Lipids and lipid nanoparticle formulations” (LONGUIDE BIOPHARMA CORPORATION, priority 2024, dated 2025)

Tests used:
[1] = Particle size and PDI of nucleic acid lipid nanoparticle preparations by dynamic light scattering; format: physicochemical
Method in brief: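 LNP solution (about 0.04 mg/mL mRNA before dilution) was diluted in ultrapure water and mixed by gentle pipetting. Particle size and PDI were then measured by dynamic light scattering.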

[2] = system: mice; assay: In vivo delivery of FLuc-mRNA lipid nanoparticles in mice, in vivo imaging (IVIS)
Method in brief: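 Mice (n=3) received about 75 μL FLuc-mRNA LNP per mouse intramuscularly (rectus femoris), intravenously (tail vein), intraperitoneally or subcutaneously (back). After injection, D-luciferin (200 μL, 15 mg/mL) was given i.p. 10-15 min before IVIS imaging.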

[3] = DMG-PEG2000:DSPC:Chol:compound 1.40:11.15:38.95:48.50, N/P 30
[4] = IM, DMG-PEG2000:DSPC:Chol:compound 1.40:11.15:38.95:48.50, N/P 30, Fluc-mRNA
[5] = IV, body, DMG-PEG2000:DSPC:Chol:compound 1.40:11.15:38.95:48.50, N/P 30, Fluc-mRNA
[6] = IV, liver, DMG-PEG2000:DSPC:Chol:compound 1.40:11.15:38.95:48.50, N/P 30
[7] = IV, liver, DMG-PEG2000:DSPC:Chol:compound 1.40:11.15:38.95:48.50, N/P 30, Fluc-mRNA
[8] = IV, lung, DMG-PEG2000:DSPC:Chol:compound 1.40:11.15:38.95:48.50, N/P 30
[9] = IV, lung, DMG-PEG2000:DSPC:Chol:compound 1.40:11.15:38.95:48.50, N/P 30, Fluc-mRNA
[10] = IV, spleen, DMG-PEG2000:DSPC:Chol:compound 1.40:11.15:38.95:48.50, N/P 30
[11] = IV, spleen, DMG-PEG2000:DSPC:Chol:compound 1.40:11.15:38.95:48.50, N/P 30, Fluc-mRNA
[12] = DMG-PEG2000:DSPC:Chol:Lipid 1.40:11.15:38.95:48.50, N/P 30, mRNA LNP
[13] = DMG-PEG2000:DSPC:Chol:Lipid 1.50:11.50:52.00:35.00, N/P 18, mRNA LNP
[14] = DMG-PEG2000:DSPC:Chol:Lipid 1.40:11.15:38.95:48.50, N/P 30, IM, whole body scan
[15] = DMG-PEG2000:DSPC:Chol:Lipid 1.40:11.15:38.95:48.50, N/P 30, IV, body (whole body scan)
[16] = DMG-PEG2000:DSPC:Chol:Lipid 1.40:11.15:38.95:48.50, N/P 30, IV, liver
[17] = DMG-PEG2000:DSPC:Chol:Lipid 1.40:11.15:38.95:48.50, N/P 30, IV, lung
[18] = DMG-PEG2000:DSPC:Chol:Lipid 1.40:11.15:38.95:48.50, N/P 30, IV, spleen
[19] = DMG-PEG2000:DSPC:Chol:Lipid 1.50:11.50:52.00:35.00, N/P 18, IV, liver
[20] = DMG-PEG2000:DSPC:Chol:Lipid 1.50:11.50:52.00:35.00, N/P 18, IV, lung
[21] = DMG-PEG2000:DSPC:Chol:Lipid 1.50:11.50:52.00:35.00, N/P 18, IV, spleen
[22] = DMG-PEG2000:DSPC:Chol:Lipid 2.63:12.10:53.68:31.59, N/P 30, mRNA LNP
[23] = DMG-PEG2000:DSPC:Chol:Lipid 2.63:12.10:53.68:31.59, N/P 30, IV, liver
[24] = DMG-PEG2000:DSPC:Chol:Lipid 2.63:12.10:53.68:31.59, N/P 30, IV, lung
[25] = DMG-PEG2000:DSPC:Chol:Lipid 2.63:12.10:53.68:31.59, N/P 30, IV, spleen

For `CCCCCCCCC(CCCCCC)C(=O)OCCCCOC(=O)C(O)CN(CCN(C)CCN(CC(O)C(=O)OCCCCOC(=O)C(CCCCCC)CCCCCCCC)CC(O)C(=O)OCCCCOC(=O)C(CCCCCC)CCCCCCCC)CC(O)C(=O)OCCCCOC(=O)C(CCCCCC)CCCCCCCC` (centres unmarked) [Compound L0298], the PDI [1, 3] was 0.11, the “Particle size (nm)” value [1, 3] was 91.43 nm and the IVIS [2, 4] was 5.25E+07. For the same compound, the IVIS [2, 5] was 1.30E+08, the “% of organ targeting” value [2, 6] was 39.52% and the IVIS [2, 7] was 3.03E+07. The “% of organ targeting” value [2, 8] was 5.53%, the IVIS [2, 9] was 4.23E+06 and the “% of organ targeting” value [2, 10] was 54.95%. The IVIS [2, 11] was 4.21E+07.

For `CCCCCCCCCCCCNC(=O)C(O)CN(CCCN(CCCCO)CCCN(CC(O)C(=O)NCCCCCCCCCCCC)CC(O)C(=O)NCCCCCCCCCCCC)CC(O)C(=O)NCCCCCCCCCCCC` (centres unmarked) [Compound L0282], the PDI [1, 12] was 0.15 ± 0.02, the Particle size [1, 12] was 85.38 ± 0.31 nm and the PDI [1, 13] was 0.18 ± 0.00. For the same compound, the Particle size [1, 13] was 100.32 ± 0.97 nm, the IVIS [2, 14] was 5.98 × 10^6 and the IVIS [2, 15] was 1.50 × 10^7. The “% of organ targeting” value [2, 16] was 2.75%, the IVIS [2, 16] was 6.77 × 10^5 and the “% of organ targeting” value [2, 17] was 60.96%. For the same compound, the IVIS [2, 17] was 1.50 × 10^7, the “% of organ targeting” value [2, 18] was 36.29% and the IVIS [2, 18] was 8.93 × 10^6. The IVIS ([2]; DMG-PEG2000:DSPC:Chol:Lipid 1.50:11.50:52.00:35.00, N/P 18, IV, body) was 3.77 × 10^6, the “% of organ targeting” value [2, 19] was 7.18% and the IVIS [2, 19] was 6.44 × 10^5. The “% of organ targeting” value [2, 20] was 8.27%, the IVIS [2, 20] was 7.41 × 10^5 and the “% of organ targeting” value [2, 21] was 84.55%. The IVIS [2, 21] was 7.58 × 10^6 and the “tissue-targeting specificity (lung vs spleen depending on molar percentage of compound)” value ([2]; certain formulations, Table 2) was “strong tissue-targeting specificity”.

For `CCCCCCCCCCCCNC(=O)C(O)CN(CCCCN(C)CCCCN(CC(O)C(=O)NCCCCCCCCCCCC)CC(O)C(=O)NCCCCCCCCCCCC)CC(O)C(=O)NCCCCCCCCCCCC` (centres unmarked) [Compound L0283], the PDI [1, 12] was 0.12 ± 0.01, the Particle size [1, 12] was 99.68 ± 0.45 nm and the PDI [1, 22] was 0.12 ± 0.01. The Particle size [1, 22] was 95.92 ± 0.22 nm, the IVIS [2, 14] was 2.02 × 10^6 and the IVIS [2, 15] was 1.94 × 10^8. The “% of organ targeting” value [2, 16] was 0.75%, the IVIS [2, 16] was 9.53 × 10^6 and the “% of organ targeting” value [2, 17] was 98.03%. The IVIS [2, 17] was 1.24 × 10^9, the “% of organ targeting” value [2, 18] was 1.22% and the IVIS [2, 18] was 1.54 × 10^7. The IVIS ([2]; DMG-PEG2000:DSPC:Chol:Lipid 2.63:12.10:53.68:31.59, N/P 30, IV, body) was 4.87 × 10^7, the “% of organ targeting” value [2, 23] was 5.72% and the IVIS [2, 23] was 3.31 × 10^6. For the same compound, the “% of organ targeting” value [2, 24] was 25.56%, the IVIS [2, 24] was 1.48 × 10^7 and the “% of organ targeting” value [2, 25] was 68.73%. For the same compound, the IVIS [2, 25] was 3.98 × 10^7, the “in vivo delivery efficiency as compared to the benchmark compound SM102” value ([2]; certain formulations, Table 2) was “superior in vivo delivery efficiency” and the “tissue-targeting specificity (lung vs spleen depending on molar percentage of compound)” value ([2]; certain formulations, Table 2) was “strong tissue-targeting specificity”.

In the case of `CC/C=C\CCOCOCCCCCCOC(=O)C(O)CN(CCN(C)CCN(CC(O)C(=O)OCCCCCCOCOCC/C=C\CC)CC(O)C(=O)OCCCCCCOCOCC/C=C\CC)CC(O)C(=O)OCCCCCCOCOCC/C=C\CC` (centres unmarked) [Compound L0334], the PDI [1, 3] is reported as 0.06, the “Particle size (nm)” value [1, 3] is reported as 146.13 nm and the IVIS [2, 4] is reported as 6.25E+05. For the same compound, the IVIS [2, 5] was 5.29E+08, the “% of organ targeting” value [2, 6] was 57.03% and the IVIS [2, 7] was 1.01E+08. The “% of organ targeting” value [2, 8] was 6.95%, the IVIS [2, 9] was 1.22E+07 and the “% of organ targeting” value [2, 10] was 36.03%. It also gave an IVIS [2, 11] of 6.35E+07.

For `CCCCCCC(CCCCCC)C(=O)OCCCCCCOC(=O)C(O)CN(C)CCN(C)CCN(C)CC(O)C(=O)OCCCCCCOC(=O)C(CCCCCC)CCCCCC` (centres unmarked) [Compound L0286], the PDI [1, 12] was 0.16 ± 0.04, the Particle size [1, 12] was 136.97 ± 0.92 nm and the IVIS [2, 14] was 3.05 × 10^3. For the same compound, the IVIS [2, 15] was 4.41 × 10^6.
